Laboratory results taken from article PMC4490784, “Compensatory induction of MYC expression by sustained CDK9 inhibition via a BRD4-dependent mechanism” (eLife, 2015).

Experiments:
Assay in all cases: KINOMEscan binding assay
p38-alpha = molecular target: T1, p38-alpha (Homo sapiens, UniProt Q16539)
T1 construct: purchased DiscoveRx KINOMEscan
Summary of the method: (§1)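 Panel of >400 kinases screened by active-site competition binding, compound at 1 and 10 µM.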

[1] = molecular target: T2, RSK4(Kin.Dom.1-N-terminal) (Homo sapiens, UniProt Q9UK32)
T2 construct: RSK4(Kin.Dom.1-N-terminal); purchased DiscoveRx KINOMEscan
Summary of the method: as §1

MYLK4 = molecular target: T3, MYLK4 (Homo sapiens, UniProt Q86YV6); settings: read-out: % Retention on Solid Support
T3 construct: purchased DiscoveRx KINOMEscan
Summary of the method: as §1

IRAK4 = IRAK4 (Homo sapiens, UniProt Q9NWZ3); settings: 1 µM i-CDK9
Summary of the method: as §1

AKT3 = molecular target: T4, AKT3 (Homo sapiens, UniProt Q9Y243); settings: read-out: % Retention on Solid Support
T4 construct: purchased DiscoveRx KINOMEscan
Summary of the method: as §1

[2] = molecular target: T5, ABL1(F317L)-nonphosphorylated (Homo sapiens, UniProt P00519, F317L); settings: read-out: % Retention on Solid Support
T5 construct: purchased DiscoveRx KINOMEscan
Summary of the method: as §1

EGFR(G719S) = molecular target: T6, EGFR(G719S) (Homo sapiens, UniProt P00533, G719S)
T6 construct: purchased DiscoveRx KINOMEscan
Summary of the method: as §1

IKK-alpha = molecular target: T7, IKK-alpha (Homo sapiens, UniProt O15111); settings: read-out: % Retention on Solid Support
T7 construct: purchased DiscoveRx KINOMEscan
Summary of the method: as §1

DCAMKL1 = molecular target: T8, DCAMKL1 (Homo sapiens, UniProt O15075)
T8 construct: purchased DiscoveRx KINOMEscan
Summary of the method: as §1

STK16 = molecular target: T9, STK16 (Homo sapiens, UniProt O75716); settings: read-out: % Retention on Solid Support
T9 construct: purchased DiscoveRx KINOMEscan
Summary of the method: as §1

PKAC-alpha = molecular target: T10, PKAC-alpha (Homo sapiens, UniProt P17612); settings: read-out: % Retention on Solid Support
T10 construct: purchased DiscoveRx KINOMEscan
Summary of the method: as §1

RET(V804L) = molecular target: T11, RET(V804L) (Homo sapiens, UniProt P07949, V804L); settings: read-out: % Retention on Solid Support
T11 construct: purchased DiscoveRx KINOMEscan
Summary of the method: as §1

YANK1 = molecular target: T12, YANK1 (Homo sapiens, UniProt Q8WU08); settings: 1 µM i-CDK9; read-out: % Retention on Solid Support
T12 construct: purchased DiscoveRx KINOMEscan
Summary of the method: as §1

PFTAIRE2 = molecular target: T13, PFTAIRE2 (Homo sapiens, UniProt Q96Q40); settings: read-out: % Retention on Solid Support
T13 construct: purchased DiscoveRx KINOMEscan
Summary of the method: as §1

[3] = molecular target: T14, RPS6KA5(Kin.Dom.1-N-terminal) (Homo sapiens, UniProt O75582); settings: read-out: % Retention on Solid Support
T14 construct: RPS6KA5(Kin.Dom.1-N-terminal); purchased DiscoveRx KINOMEscan
Summary of the method: as §1

EGFR = molecular target: T15, EGFR (Homo sapiens, UniProt P00533)
T15 construct: purchased DiscoveRx KINOMEscan
Summary of the method: as §1

SIK = molecular target: T16, SIK (Homo sapiens, UniProt P57059)
T16 construct: purchased DiscoveRx KINOMEscan
Summary of the method: as §1

NEK5 = molecular target: T17, NEK5 (Homo sapiens, UniProt Q6P3R8); settings: read-out: % Retention on Solid Support
T17 construct: purchased DiscoveRx KINOMEscan
Summary of the method: as §1

NEK3 = molecular target: T18, NEK3 (Homo sapiens, UniProt P51956); settings: 1 µM i-CDK9; read-out: % Retention on Solid Support
T18 construct: purchased DiscoveRx KINOMEscan
Summary of the method: as §1

PIP5K1A = molecular target: T19, PIP5K1A (Homo sapiens, UniProt Q99755); settings: read-out: % Retention on Solid Support
T19 construct: purchased DiscoveRx KINOMEscan
Summary of the method: as §1

KIT(L576P) = molecular target: T20, KIT(L576P) (Homo sapiens, UniProt P10721, L576P); settings: read-out: % Retention on Solid Support
T20 construct: purchased DiscoveRx KINOMEscan
Summary of the method: as §1

SBK1 = molecular target: T21, SBK1 (Homo sapiens, UniProt Q52WX2); settings: read-out: % Retention on Solid Support
T21 construct: purchased DiscoveRx KINOMEscan
Summary of the method: as §1

FES = molecular target: T22, FES (Homo sapiens, UniProt P07332); settings: read-out: % Retention on Solid Support
T22 construct: purchased DiscoveRx KINOMEscan
Summary of the method: as §1

KIT(A829P) = molecular target: T23, KIT(A829P) (Homo sapiens, UniProt P10721, A829P); settings: 1 µM i-CDK9; read-out: % Retention on Solid Support
T23 construct: purchased DiscoveRx KINOMEscan
Summary of the method: as §1

TGFBR2 = molecular target: T24, TGFBR2 (Homo sapiens, UniProt P37173); settings: read-out: % Retention on Solid Support
T24 construct: purchased DiscoveRx KINOMEscan
Summary of the method: as §1

PRKG2 = molecular target: T25, PRKG2 (Homo sapiens, UniProt Q13237); settings: read-out: % Retention on Solid Support
T25 construct: purchased DiscoveRx KINOMEscan
Summary of the method: as §1

ULK2 = molecular target: T26, ULK2 (Homo sapiens, UniProt Q8IYT8); settings: read-out: % Retention on Solid Support
T26 construct: purchased DiscoveRx KINOMEscan
Summary of the method: as §1

T11 sequence (P07949 29-1114 V804L): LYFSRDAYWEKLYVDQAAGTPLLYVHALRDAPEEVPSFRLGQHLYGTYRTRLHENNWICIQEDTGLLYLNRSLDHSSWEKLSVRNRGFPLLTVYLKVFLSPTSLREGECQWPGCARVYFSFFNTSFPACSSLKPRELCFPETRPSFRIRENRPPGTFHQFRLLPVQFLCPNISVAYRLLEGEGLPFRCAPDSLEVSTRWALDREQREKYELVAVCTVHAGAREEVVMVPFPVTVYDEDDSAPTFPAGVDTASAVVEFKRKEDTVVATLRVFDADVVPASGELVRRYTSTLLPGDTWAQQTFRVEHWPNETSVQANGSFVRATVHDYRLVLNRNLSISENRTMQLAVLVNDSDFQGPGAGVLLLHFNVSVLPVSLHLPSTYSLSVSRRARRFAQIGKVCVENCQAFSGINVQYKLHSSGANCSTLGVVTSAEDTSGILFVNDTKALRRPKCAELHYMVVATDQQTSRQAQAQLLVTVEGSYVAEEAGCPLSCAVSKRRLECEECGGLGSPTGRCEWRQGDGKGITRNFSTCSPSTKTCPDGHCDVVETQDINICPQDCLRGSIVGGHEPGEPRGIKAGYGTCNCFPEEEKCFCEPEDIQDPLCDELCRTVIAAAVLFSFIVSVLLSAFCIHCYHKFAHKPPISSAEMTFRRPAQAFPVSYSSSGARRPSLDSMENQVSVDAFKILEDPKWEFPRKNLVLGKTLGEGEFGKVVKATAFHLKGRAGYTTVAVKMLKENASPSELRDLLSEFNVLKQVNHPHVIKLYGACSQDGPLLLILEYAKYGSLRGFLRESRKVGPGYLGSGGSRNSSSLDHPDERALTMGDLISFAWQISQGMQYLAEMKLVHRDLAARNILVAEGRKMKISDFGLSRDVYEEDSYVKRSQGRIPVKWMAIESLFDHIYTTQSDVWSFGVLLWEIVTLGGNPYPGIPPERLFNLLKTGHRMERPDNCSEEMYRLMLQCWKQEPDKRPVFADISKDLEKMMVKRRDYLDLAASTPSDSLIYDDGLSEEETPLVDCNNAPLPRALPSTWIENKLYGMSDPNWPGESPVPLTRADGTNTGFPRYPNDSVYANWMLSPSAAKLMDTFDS
T5 sequence (P00519 whole entry F317L): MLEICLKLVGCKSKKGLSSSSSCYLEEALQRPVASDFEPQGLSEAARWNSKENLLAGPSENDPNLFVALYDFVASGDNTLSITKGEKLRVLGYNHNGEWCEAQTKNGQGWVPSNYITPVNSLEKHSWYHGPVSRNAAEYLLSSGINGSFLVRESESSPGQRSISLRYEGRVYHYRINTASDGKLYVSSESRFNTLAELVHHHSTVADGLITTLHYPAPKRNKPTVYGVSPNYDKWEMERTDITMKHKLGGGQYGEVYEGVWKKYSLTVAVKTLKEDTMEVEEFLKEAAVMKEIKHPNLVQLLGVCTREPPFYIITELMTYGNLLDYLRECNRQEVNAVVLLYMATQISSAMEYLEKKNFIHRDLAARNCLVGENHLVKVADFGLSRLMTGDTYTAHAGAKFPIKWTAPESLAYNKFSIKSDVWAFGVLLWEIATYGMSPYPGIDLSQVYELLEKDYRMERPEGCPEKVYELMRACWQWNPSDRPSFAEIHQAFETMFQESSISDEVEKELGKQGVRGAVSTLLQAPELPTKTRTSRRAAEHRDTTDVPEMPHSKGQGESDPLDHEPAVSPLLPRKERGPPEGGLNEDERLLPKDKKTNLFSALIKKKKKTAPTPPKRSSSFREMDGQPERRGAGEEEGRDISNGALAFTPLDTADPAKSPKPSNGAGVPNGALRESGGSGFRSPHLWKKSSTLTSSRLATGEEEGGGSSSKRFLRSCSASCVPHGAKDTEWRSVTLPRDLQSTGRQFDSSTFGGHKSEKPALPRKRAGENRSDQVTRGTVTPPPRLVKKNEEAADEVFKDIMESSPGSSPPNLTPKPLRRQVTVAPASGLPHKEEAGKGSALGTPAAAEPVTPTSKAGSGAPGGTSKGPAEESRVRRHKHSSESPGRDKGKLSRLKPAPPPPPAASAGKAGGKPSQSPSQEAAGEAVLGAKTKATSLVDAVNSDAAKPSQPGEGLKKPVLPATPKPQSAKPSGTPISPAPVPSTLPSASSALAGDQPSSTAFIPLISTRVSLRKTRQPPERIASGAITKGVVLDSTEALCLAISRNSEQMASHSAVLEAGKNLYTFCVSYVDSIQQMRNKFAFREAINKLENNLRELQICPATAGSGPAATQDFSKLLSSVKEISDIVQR
T3 sequence (Q86YV6 whole entry): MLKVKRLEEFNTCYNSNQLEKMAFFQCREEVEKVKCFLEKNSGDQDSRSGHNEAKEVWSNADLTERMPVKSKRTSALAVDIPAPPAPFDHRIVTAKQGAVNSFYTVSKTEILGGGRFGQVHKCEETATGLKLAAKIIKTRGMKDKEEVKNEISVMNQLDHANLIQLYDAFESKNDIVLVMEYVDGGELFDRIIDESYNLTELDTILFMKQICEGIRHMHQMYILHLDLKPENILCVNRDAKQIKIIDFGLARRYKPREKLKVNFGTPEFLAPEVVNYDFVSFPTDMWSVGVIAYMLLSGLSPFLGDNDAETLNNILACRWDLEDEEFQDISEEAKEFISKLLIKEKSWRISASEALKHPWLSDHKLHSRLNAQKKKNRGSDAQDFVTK
T26 sequence (Q8IYT8 whole entry): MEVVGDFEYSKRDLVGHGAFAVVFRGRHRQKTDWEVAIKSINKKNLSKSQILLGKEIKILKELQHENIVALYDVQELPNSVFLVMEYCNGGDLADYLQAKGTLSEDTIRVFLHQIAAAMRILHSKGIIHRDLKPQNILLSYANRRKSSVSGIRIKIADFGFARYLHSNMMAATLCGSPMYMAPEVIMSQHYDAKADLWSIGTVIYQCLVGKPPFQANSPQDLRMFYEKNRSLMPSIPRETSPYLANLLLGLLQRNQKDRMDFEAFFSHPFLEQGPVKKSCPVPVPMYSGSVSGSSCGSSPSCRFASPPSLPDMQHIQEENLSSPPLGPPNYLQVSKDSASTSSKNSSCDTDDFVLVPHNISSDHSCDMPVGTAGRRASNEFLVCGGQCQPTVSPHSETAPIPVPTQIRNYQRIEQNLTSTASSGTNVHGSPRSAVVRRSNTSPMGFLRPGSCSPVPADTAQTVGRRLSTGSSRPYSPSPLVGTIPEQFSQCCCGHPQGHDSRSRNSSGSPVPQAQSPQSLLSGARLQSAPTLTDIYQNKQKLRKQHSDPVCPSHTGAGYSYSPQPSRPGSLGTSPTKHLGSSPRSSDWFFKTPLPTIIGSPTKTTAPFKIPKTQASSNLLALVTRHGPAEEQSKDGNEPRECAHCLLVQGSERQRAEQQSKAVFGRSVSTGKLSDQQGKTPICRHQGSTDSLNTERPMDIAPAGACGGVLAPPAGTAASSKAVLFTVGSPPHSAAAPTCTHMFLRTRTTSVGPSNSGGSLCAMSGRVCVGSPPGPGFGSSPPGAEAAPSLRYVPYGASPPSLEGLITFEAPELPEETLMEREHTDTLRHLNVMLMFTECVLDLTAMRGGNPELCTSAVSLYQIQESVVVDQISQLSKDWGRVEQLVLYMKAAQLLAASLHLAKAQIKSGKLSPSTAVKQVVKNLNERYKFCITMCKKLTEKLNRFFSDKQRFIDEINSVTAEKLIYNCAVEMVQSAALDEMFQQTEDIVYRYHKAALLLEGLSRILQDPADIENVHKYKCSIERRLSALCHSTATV
T4 sequence (Q9Y243 whole entry): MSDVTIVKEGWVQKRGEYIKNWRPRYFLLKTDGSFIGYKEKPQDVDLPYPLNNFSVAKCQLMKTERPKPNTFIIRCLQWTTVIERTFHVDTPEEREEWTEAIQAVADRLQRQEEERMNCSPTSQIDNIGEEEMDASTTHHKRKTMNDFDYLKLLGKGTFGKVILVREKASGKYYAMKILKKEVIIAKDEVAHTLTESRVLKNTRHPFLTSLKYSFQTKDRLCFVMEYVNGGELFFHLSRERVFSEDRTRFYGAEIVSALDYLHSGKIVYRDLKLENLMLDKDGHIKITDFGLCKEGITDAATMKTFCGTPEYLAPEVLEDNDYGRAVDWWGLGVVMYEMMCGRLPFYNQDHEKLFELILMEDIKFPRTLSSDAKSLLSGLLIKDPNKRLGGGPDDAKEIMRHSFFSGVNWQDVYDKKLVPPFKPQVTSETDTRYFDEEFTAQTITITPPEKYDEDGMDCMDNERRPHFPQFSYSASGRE
T24 sequence (P37173 23-567): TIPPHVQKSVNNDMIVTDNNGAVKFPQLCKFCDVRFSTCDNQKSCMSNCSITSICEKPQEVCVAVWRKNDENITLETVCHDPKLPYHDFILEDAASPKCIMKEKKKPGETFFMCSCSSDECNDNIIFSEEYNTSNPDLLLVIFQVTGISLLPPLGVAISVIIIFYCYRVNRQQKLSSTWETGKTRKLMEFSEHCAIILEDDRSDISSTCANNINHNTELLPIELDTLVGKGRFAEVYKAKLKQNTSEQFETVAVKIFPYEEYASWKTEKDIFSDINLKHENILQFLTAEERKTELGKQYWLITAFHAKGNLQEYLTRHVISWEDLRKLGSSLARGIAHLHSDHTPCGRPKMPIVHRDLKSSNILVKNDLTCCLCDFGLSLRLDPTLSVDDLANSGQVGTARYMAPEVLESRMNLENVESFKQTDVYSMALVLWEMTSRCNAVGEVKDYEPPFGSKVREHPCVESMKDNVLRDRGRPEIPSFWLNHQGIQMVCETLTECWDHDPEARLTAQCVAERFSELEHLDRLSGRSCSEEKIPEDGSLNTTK
T1 sequence (Q16539 whole entry): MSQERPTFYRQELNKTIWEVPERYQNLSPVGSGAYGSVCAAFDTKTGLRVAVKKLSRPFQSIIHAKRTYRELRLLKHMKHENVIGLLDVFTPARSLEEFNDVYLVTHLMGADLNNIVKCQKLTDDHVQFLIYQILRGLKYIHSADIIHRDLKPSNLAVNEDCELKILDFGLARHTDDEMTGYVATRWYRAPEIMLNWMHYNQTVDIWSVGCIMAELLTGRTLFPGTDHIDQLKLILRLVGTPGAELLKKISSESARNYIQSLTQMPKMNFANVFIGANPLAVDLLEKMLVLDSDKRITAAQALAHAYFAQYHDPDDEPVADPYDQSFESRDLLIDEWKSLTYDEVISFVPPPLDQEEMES

## N[C@H]1CC[C@H](Nc2cc(-c3cccc(NCc4cccc(F)c4)n3)c(Cl)cn2)CC1 [i-CDK9, N2′-(trans-4-aminocyclohexyl)-5′-chloro-N6-(3-fluorobenzyl)-2,4′-bipyridine-2′,6-diamine]
p38-alpha; 1 µM i-CDK9
  % Retention on Solid Support: 85%
p38-alpha; 10 µM i-CDK9
  % Retention on Solid Support: 100%
[1]; 1 µM i-CDK9
  % Retention on Solid Support: 70%
[1]; 10 µM i-CDK9
  % Retention on Solid Support: 100%
MYLK4; 1 µM i-CDK9
  remaining binding at 1 µM: 94%
MYLK4; 10 µM i-CDK9
  remaining binding at 10 µM: 73%
IRAK4
  % Retention on Solid Support: 93%
AKT3; 1 µM i-CDK9
  remaining binding at 1 µM: 72%
AKT3; 10 µM i-CDK9
  remaining binding at 10 µM: 87%
[2]; 1 µM i-CDK9
  remaining binding at 1 µM: 100%
[2]; 10 µM i-CDK9
  remaining binding at 10 µM: 91%
EGFR(G719S); 1 µM i-CDK9
  % Retention on Solid Support: 100%
EGFR(G719S); 10 µM i-CDK9
  % Retention on Solid Support: 100%
IKK-alpha; 1 µM i-CDK9
  remaining binding at 1 µM: 85%
IKK-alpha; 10 µM i-CDK9
  remaining binding at 10 µM: 71%
DCAMKL1; 1 µM i-CDK9
  % Retention on Solid Support: 100%
DCAMKL1; 10 µM i-CDK9
  % Retention on Solid Support: 100%
STK16; 1 µM i-CDK9
  remaining binding at 1 µM: 95%
STK16; 10 µM i-CDK9
  remaining binding at 10 µM: 100%
PKAC-alpha; 1 µM i-CDK9
  remaining binding at 1 µM: 86%
PKAC-alpha; 10 µM i-CDK9
  remaining binding at 10 µM: 100%
RET(V804L); 1 µM i-CDK9
  remaining binding at 1 µM: 100%
RET(V804L); 10 µM i-CDK9
  remaining binding at 10 µM: 79%
YANK1
  remaining binding at 1 µM: 100%
PFTAIRE2; 1 µM i-CDK9
  remaining binding at 1 µM: 72%
PFTAIRE2; 10 µM i-CDK9
  remaining binding at 10 µM: 13%
[3]; 1 µM i-CDK9
  remaining binding at 1 µM: 79%
[3]; 10 µM i-CDK9
  remaining binding at 10 µM: 100%
EGFR; 1 µM i-CDK9
  % Retention on Solid Support: 4.7%
EGFR; 10 µM i-CDK9
  % Retention on Solid Support: 100%
SIK; 1 µM i-CDK9
  % Retention on Solid Support: 100%
SIK; 10 µM i-CDK9
  % Retention on Solid Support: 100%
NEK5; 1 µM i-CDK9
  remaining binding at 1 µM: 88%
NEK5; 10 µM i-CDK9
  remaining binding at 10 µM: 100%
NEK3
  remaining binding at 1 µM: 100%
PIP5K1A; 1 µM i-CDK9
  remaining binding at 1 µM: 83%
PIP5K1A; 10 µM i-CDK9
  remaining binding at 10 µM: 99%
KIT(L576P); 1 µM i-CDK9
  remaining binding at 1 µM: 91%
KIT(L576P); 10 µM i-CDK9
  remaining binding at 10 µM: 100%
SBK1; 1 µM i-CDK9
  remaining binding at 1 µM: 100%
SBK1; 10 µM i-CDK9
  remaining binding at 10 µM: 100%
FES; 1 µM i-CDK9
  remaining binding at 1 µM: 97%
FES; 10 µM i-CDK9
  remaining binding at 10 µM: 90%
KIT(A829P)
  remaining binding at 1 µM: 100%
TGFBR2; 1 µM i-CDK9
  remaining binding at 1 µM: 87%
TGFBR2; 10 µM i-CDK9
  remaining binding at 10 µM: 100%
PRKG2; 1 µM i-CDK9
  remaining binding at 1 µM: 100%
PRKG2; 10 µM i-CDK9
  remaining binding at 10 µM: 100%
ULK2; 1 µM i-CDK9
  remaining binding at 1 µM: 100%
ULK2; 10 µM i-CDK9
  remaining binding at 10 µM: 100%
